Legend:
[1] = molecular target: T1, NMDA (NR1/NR2A) receptors (Rattus norvegicus, UniProt P35439+Q00959); experiment: Oocyte two-electrode voltage clamp, NMDA receptor currents; format: cell-based; conditions: for NMDA % Direct Effect: drug response without receptor agonist, percent of control agonist peak, saturated drug, mean ± SEM, 5-6 oocytes; for NMDA Drug Response: saturated drug + agonist; for direct effect on NMDA receptors (in words): absence of glutamate and glycine agonist
T1 construct: expressed in transfected cells; host or cells: Xenopus laevis oocytes, injected with in vitro transcribed RNA (1:1), clones a gift from Dr. R. A. Harris
T1 sequence (Q00959 23-1464, other chains not shown): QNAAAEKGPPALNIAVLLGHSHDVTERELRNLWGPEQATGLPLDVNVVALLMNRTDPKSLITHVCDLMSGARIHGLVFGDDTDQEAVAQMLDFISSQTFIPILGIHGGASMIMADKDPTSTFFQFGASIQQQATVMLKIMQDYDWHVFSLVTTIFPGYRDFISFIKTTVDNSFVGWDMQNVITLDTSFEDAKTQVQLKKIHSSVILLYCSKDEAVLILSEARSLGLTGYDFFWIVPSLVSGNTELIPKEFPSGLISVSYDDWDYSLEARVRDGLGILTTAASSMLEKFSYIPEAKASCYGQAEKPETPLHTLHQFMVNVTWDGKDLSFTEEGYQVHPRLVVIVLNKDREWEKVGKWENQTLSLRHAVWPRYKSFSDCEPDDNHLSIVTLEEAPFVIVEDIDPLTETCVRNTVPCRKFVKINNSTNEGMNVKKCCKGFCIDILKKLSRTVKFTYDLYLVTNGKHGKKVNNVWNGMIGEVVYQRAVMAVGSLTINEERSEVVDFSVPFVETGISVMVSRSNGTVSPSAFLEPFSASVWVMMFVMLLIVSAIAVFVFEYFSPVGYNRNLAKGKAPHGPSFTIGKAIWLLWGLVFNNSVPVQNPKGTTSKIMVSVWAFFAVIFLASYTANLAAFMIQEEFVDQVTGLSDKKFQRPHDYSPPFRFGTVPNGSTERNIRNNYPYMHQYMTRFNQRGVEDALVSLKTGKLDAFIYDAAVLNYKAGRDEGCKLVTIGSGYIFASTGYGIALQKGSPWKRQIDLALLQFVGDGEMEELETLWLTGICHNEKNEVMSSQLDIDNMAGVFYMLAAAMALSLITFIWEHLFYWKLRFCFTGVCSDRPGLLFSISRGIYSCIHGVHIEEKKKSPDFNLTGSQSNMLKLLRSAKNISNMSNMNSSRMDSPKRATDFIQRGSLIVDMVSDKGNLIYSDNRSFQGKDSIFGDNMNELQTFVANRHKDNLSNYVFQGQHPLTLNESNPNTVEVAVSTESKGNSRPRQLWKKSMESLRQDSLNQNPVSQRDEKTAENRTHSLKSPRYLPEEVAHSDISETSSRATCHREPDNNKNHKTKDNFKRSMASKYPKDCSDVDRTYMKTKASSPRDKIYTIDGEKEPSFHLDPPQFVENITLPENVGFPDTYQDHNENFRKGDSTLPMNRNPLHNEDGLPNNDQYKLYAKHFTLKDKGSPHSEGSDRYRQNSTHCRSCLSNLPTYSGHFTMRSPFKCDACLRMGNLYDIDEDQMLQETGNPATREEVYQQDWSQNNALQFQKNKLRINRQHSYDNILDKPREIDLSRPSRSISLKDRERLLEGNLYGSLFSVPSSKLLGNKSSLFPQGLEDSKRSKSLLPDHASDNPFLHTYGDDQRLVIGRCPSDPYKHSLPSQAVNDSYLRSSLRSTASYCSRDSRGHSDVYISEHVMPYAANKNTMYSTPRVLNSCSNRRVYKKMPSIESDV
Description: Methods: GABAA (α1β2γ2s) or NMDA (NR1/NR2A) receptors were expressed in oocytes and studied using standard two-electrode voltage clamp techniques. Hydrocarbons from 14 different organic functional groups were studied at saturated concentrations, and compounds within each group differed only by the carbon number at the ω-position or within a saturated ring. An effect on GABAA or NMDA receptors was defined as a 10% or greater reversible current change from baseline that was statistically different from zero.
Oocyte Collection and Receptor Expression. An ovary from tricaine-anesthetized Xenopus laevis frogs was surgically removed using a protocol approved by the Institutional Animal Care and Use Committee at the University of California, Davis. Following manual disruption of the ovarian lobule septae, the ovary was incubated in 0.2% Type I collagenase (Worthington Biochemical, Lakewood, N.J.) to defolliculate oocytes which were washed and stored in fresh and filtered modified Barth's solution composed of 88 mM NaCl, 1 mM KCl, 2.4 mM NaHCO3, 20 mM HEPES, 0.82 mM MgSO4, 0.33 mM Ca(NO3)2, 0.41 mM CaCl2, 5 mM sodium pyruvate, gentamycin, penicillin, streptomycin, and corrected to pH=7.4. All salts and antibiotics were A.C.S. grade (Fisher Scientific, Pittsburgh, Pa.).
Clones used were provided as a gift from Dr. R. A. Harris (University of Texas, Austin) and were sequenced and compared to references in the National Center for Biotechnology Information database to confirm the identity of each gene. GABAA receptors were expressed using clones for the human GABAA α1 and the rat GABAA β2 and γ2s subunits in pCIS-II vectors. […] In separate oocytes, glutamate receptors were expressed using rat NMDA NR1 clones in a pCDNA3 vector and rat NMDA NR2A clones in a Bluescript vector. RNA encoding each subunit was prepared using a commercial transcription kit (T7 mMessage mMachine, Ambion, Austin, Tex.) was mixed in a 1:1 ratio, and 1-10 ng of total RNA was injected into oocytes and studied 1-2 days later.
NMDA Receptor Electrophysiology Studies. […] Briefly, baseline perfusion solutions were the same as for GABAA with the substitution of equimolar BaCl2 for calcium salts and the addition of 0.1 mM EGTA; this constituted barium frog Ringer's solution (BaFR). Agonist solutions for NMDA studies also contained 0.1 mM glutamate (E) and 0.01 mM glycine (G) to constitute a BaFREG solution.
The syringe pump and perfusion chamber apparatus as well as the clamp holding potential and baseline-agonist exposure protocols were identical to that described for the GABAA studies. The same test compounds, concentrations, and preparative methods were used in NMDA voltage clamp studies as in the GABAA voltage clamp studies (Table 2).
Response Calculations and Data Analysis. Modulating drug responses were calculated as the percent of the control (baseline) peak as follows:
[formula] where ID and IB were the peak currents measured during agonist+drug and agonist baseline perfusions, respectively. When present, direct receptor activation by a drug was similarly calculated as a percent of the agonist response. […] A lack of receptor response (cut-off) was defined as a <10% change from baseline current that was statistically indistinguishable from zero using a two-tailed Student t-test.

[2] = molecular target: GABAA (α1β2γ2s) receptors (UniProt P14867+P18508+P63138); experiment: Oocyte two-electrode voltage clamp, GABAA receptor currents; conditions: for GABAA % Direct Effect: drug response without receptor agonist, percent of control agonist peak, saturated drug, mean ± SEM, 5-6 oocytes; for GABAA Drug Response: saturated drug + agonist; for GABAA receptor modulation (in words): saturating aqueous concentration
GABAA (α1β2γ2s) receptors, sequence (P14867 28-456): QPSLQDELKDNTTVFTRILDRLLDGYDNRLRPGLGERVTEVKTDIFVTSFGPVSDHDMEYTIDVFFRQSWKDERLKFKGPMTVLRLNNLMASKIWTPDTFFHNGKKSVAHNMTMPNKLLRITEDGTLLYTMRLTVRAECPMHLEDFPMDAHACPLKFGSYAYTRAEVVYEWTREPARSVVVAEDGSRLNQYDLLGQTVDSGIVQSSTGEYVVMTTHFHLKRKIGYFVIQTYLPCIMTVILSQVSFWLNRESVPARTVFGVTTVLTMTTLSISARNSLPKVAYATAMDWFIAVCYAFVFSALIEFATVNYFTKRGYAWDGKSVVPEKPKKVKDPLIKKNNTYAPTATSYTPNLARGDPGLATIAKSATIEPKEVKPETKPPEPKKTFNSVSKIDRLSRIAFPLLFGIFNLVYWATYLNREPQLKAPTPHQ
GABAA (α1β2γ2s) receptors, sequence (P63138 25-474 limits assumed): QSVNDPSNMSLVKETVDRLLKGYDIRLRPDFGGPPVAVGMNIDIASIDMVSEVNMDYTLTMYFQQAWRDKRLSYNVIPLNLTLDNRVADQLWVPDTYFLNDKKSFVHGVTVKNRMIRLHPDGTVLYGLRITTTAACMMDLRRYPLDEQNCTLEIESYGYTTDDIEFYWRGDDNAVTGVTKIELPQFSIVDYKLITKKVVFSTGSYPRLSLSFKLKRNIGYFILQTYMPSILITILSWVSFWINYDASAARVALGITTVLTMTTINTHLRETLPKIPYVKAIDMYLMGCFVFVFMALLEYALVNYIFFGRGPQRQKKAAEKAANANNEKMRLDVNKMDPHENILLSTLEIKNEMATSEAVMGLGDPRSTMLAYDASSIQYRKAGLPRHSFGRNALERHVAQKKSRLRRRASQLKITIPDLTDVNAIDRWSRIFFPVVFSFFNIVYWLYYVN
GABAA (α1β2γ2s) receptors, sequence (P18508 39-466): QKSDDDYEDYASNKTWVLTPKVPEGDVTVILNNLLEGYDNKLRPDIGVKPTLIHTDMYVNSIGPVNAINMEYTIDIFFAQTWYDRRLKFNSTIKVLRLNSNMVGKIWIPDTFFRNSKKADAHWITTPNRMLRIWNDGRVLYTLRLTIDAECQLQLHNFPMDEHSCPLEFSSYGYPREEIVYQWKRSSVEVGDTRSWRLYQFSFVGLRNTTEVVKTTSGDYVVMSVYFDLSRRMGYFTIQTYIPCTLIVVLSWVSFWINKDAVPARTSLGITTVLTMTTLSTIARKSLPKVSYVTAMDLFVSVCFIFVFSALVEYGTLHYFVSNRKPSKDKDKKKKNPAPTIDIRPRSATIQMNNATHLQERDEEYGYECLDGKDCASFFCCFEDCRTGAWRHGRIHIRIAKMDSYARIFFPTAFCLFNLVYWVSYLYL
Description: GABAA receptors were expressed using clones for the human GABAA α1 and the rat GABAA β2 and γ2s subunits in pCIS-II vectors. […] These plasmid ratios ensured incorporation of the γ-subunit into expressed receptors, as confirmed via receptor potentiation to 10 μM chlordiazepoxide or insensitivity to 10 μM zinc chloride during co-application with GABA. In separate oocytes, glutamate receptors were expressed using rat NMDA NR1 clones in a pCDNA3 vector and rat NMDA NR2A clones in a Bluescript vector. RNA encoding each subunit was prepared using a commercial transcription kit (T7 mMessage mMachine, Ambion, Austin, Tex.) was mixed in a 1:1 ratio, and 1-10 ng of total RNA was injected into oocytes and studied 1-2 days later.
Oocytes were studied in a 250 μL linear-flow perfusion chamber with solutions administered by syringe pump at 1.5 ml/min with gastight glass syringes and Teflon tubing. Oocyte GABAA currents were studied using standard two-electrode voltage clamping techniques at a holding potential of 80 mV using a 250 μL channel linear-flow perfusion chamber with solutions administered by syringe pump at 1.5 mL/min.
After FR perfusion for 5 min, oocytes were exposed to 30 sec FR-GABA followed by another 5 min FR washout; this was repeated until stable GABAA-elicited peaks were obtained. Next, FR containing a saturated solution of the study drug (Table 2)—or for gaseous study compounds a vapor pressure equal to 90% of barometric pressure with balance oxygen—was used to perfuse the oocyte chamber for 2 min followed by perfusion with a FR-GABA solution containing the identical drug concentration for 30 sec.
[formula] where ID and IB were the peak currents measured during agonist+drug and agonist baseline perfusions, respectively. When present, direct receptor activation by a drug was similarly calculated as a percent of the agonist response. Average current responses for each drug and channel were described by mean±SD. A lack of receptor response (cut-off) was defined as a <10% change from baseline current that was statistically indistinguishable from zero using a two-tailed Student t-test.

## CCCCCCCCC(C)=O [2-decanone]
[1]
  NMDA % Direct Effect: none
[2]
  GABAA % Direct Effect: none
  GABAA Drug Response: + (potentiation (+) for drug+agonist responses greater than the control agonist peak)

## CCCCCCCC(=O)OCC [ethyl octanoate]
[1]
  NMDA % Direct Effect: none
[2]
  GABAA % Direct Effect: none
  GABAA Drug Response: + (potentiation (+) for drug+agonist responses greater than the control agonist peak)

## CCCCCF [1-fluoropentane]
[1]
  NMDA % Direct Effect: none
[2]
  GABAA % Direct Effect: none
  GABAA Drug Response: + (potentiation (+) for drug+agonist responses greater than the control agonist peak)

## CCCCCCF [1-fluorohexane]
[1]
  NMDA % Direct Effect: none
  NMDA Drug Response: 0 (no response (0) for drug+agonist responses that differ by <10% from the control agonist peak)
[2]
  GABAA Drug Response: + (potentiation (+) for drug+agonist responses greater than the control agonist peak)

## C#CCCCCCC [1-octyne]
[1]
  NMDA % Direct Effect: none
  NMDA Drug Response: 0 (no response (0) for drug+agonist responses that differ by <10% from the control agonist peak)
[2]
  GABAA % Direct Effect: none
  GABAA Drug Response: + (potentiation (+) for drug+agonist responses greater than the control agonist peak)

## CN1CCOCC1 [4-methylmorpholine]
[1]
  direct effect on NMDA receptors (in words): direct activation of NMDA receptors

## CCCCCCCCCC(C)=O [2-undecanone]
[1]
  NMDA % Direct Effect: none
  NMDA Drug Response: 0 (no response (0) for drug+agonist responses that differ by <10% from the control agonist peak)
[2]
  GABAA % Direct Effect: none
  GABAA Drug Response: + (potentiation (+) for drug+agonist responses greater than the control agonist peak)

## CCCC [butane]
[1]
  NMDA % Direct Effect: none
[1]; saturating aqueous concentration
  NMDA receptor modulation (in words): negatively modulates NMDA receptors
[2]
  GABAA % Direct Effect: none
  GABAA Drug Response: + (potentiation (+) for drug+agonist responses greater than the control agonist peak)
  GABAA receptor modulation (in words): positively modulate GABAA receptors

## CCCCCC [hexane]
[1]
  NMDA % Direct Effect: none
  NMDA Drug Response: 0 (no response (0) for drug+agonist responses that differ by <10% from the control agonist peak)
[2]
  GABAA % Direct Effect: none
  GABAA Drug Response: + (potentiation (+) for drug+agonist responses greater than the control agonist peak)

## C#CCCCCC [1-heptyne]
[1]
  NMDA % Direct Effect: none
[2]
  GABAA % Direct Effect: none
  GABAA Drug Response: + (potentiation (+) for drug+agonist responses greater than the control agonist peak)

## CCCCCCCCSCC [1-(ethylthio)-octane]
[1]
  NMDA % Direct Effect: none
  NMDA Drug Response: 0 (no response (0) for drug+agonist responses that differ by <10% from the control agonist peak)
[2]
  GABAA % Direct Effect: none
  GABAA Drug Response: + (potentiation (+) for drug+agonist responses greater than the control agonist peak)

## C=CCCCC [1-hexene]
[1]
  NMDA % Direct Effect: none
  NMDA Drug Response: 0 (no response (0) for drug+agonist responses that differ by <10% from the control agonist peak)
[2]
  GABAA % Direct Effect: none
  GABAA Drug Response: + (potentiation (+) for drug+agonist responses greater than the control agonist peak)

## CCCCC [pentane]
[1]
  NMDA % Direct Effect: none
  NMDA Drug Response: 0 (no response (0) for drug+agonist responses that differ by <10% from the control agonist peak)
[2]
  GABAA % Direct Effect: none
  GABAA Drug Response: + (potentiation (+) for drug+agonist responses greater than the control agonist peak)
  GABAA receptor modulation (in words): positively modulate GABAA receptors

## CCCCCCCCCCCO [1-undecanol]
[1]
  NMDA % Direct Effect: none
  NMDA Drug Response: 0 (no response (0) for drug+agonist responses that differ by <10% from the control agonist peak)
[2]
  GABAA % Direct Effect: none
  GABAA Drug Response: + (potentiation (+) for drug+agonist responses greater than the control agonist peak)

## CCCCCCSCC [1-(ethylthio)-hexane]
[1]
  NMDA % Direct Effect: none
[2]
  GABAA % Direct Effect: none
  GABAA Drug Response: + (potentiation (+) for drug+agonist responses greater than the control agonist peak)

## C=CCCC [1-pentene]
[1]
  NMDA % Direct Effect: none
[2]
  GABAA % Direct Effect: 2 ± 3%
  GABAA Drug Response: + (potentiation (+) for drug+agonist responses greater than the control agonist peak)

## CCCCCCS [1-hexanethiol]
[1]
  NMDA % Direct Effect: none
  NMDA Drug Response: 0 (no response (0) for drug+agonist responses that differ by <10% from the control agonist peak)
[2]
  GABAA Drug Response: + (potentiation (+) for drug+agonist responses greater than the control agonist peak)

## C1CCCC1 [cyclopentane]
[1]
  NMDA % Direct Effect: none
[2]
  GABAA Drug Response: + (potentiation (+) for drug+agonist responses greater than the control agonist peak)

## CCCCCCOCCCCCC [dihexylether]
[1]
  NMDA % Direct Effect: none
  NMDA Drug Response: 0 (no response (0) for drug+agonist responses that differ by <10% from the control agonist peak)
[2]
  GABAA % Direct Effect: none
  GABAA Drug Response: + (potentiation (+) for drug+agonist responses greater than the control agonist peak)

## CCCCCCCC=O [octanal]
[1]
  NMDA % Direct Effect: none
[2]
  GABAA Drug Response: + (potentiation (+) for drug+agonist responses greater than the control agonist peak)

## CCCCCCCCCC(=O)OCC [ethyl decanoate]
[1]
  NMDA % Direct Effect: none
  NMDA Drug Response: 0 (no response (0) for drug+agonist responses that differ by <10% from the control agonist peak)
[2]
  GABAA % Direct Effect: none
  GABAA Drug Response: + (potentiation (+) for drug+agonist responses greater than the control agonist peak)

## CCCCCCCCF [1-fluoroctane]
[1]
  NMDA % Direct Effect: none
  NMDA Drug Response: 0 (no response (0) for drug+agonist responses that differ by <10% from the control agonist peak)
[2]
  GABAA % Direct Effect: none
  GABAA Drug Response: + (potentiation (+) for drug+agonist responses greater than the control agonist peak)

## CCCCCCCCCC=O [decanal]
[1]
  NMDA % Direct Effect: none
  NMDA Drug Response: 0 (no response (0) for drug+agonist responses that differ by <10% from the control agonist peak)
[2]
  GABAA % Direct Effect: none
  GABAA Drug Response: + (potentiation (+) for drug+agonist responses greater than the control agonist peak)

## C#CCCCC [1-hexyne]
[1]
  NMDA % Direct Effect: none
[2]
  GABAA Drug Response: + (potentiation (+) for drug+agonist responses greater than the control agonist peak)

## CCc1cccc(CC)c1 [1,3-diethylbenzene]
[1]
  NMDA % Direct Effect: none
  NMDA Drug Response: 0 (no response (0) for drug+agonist responses that differ by <10% from the control agonist peak)
[2]
  GABAA % Direct Effect: none
  GABAA Drug Response: + (potentiation (+) for drug+agonist responses greater than the control agonist peak)

## N-methylpiperadine
[1]
  direct effect on NMDA receptors (in words): direct activation of NMDA receptors

From US9757353B2, “Methods of inducing anesthesia” (THE REGENTS OF THE UNIVERSITY OF CALIFORNIA, priority 2012, dated 2017)
